According to PubChem BioAssay AID248 (DTP/NCI, 2004):
Values joined by “and” are separate entries in the source; they are usually repeats but may differ in a detail not shown here. Equal values may be shown once. Inconclusive results and toxic doses are left out. Cut-off read from the data, not from the text of the source: active = T/C of 150% or more; inactive = T/C below 125%.

Tested on: L1210 leukemia ip in BDF1 mice, survival T/C
Assay: NCI In Vivo Anticancer Drug Screen. Data for tumor model L1210 Leukemia (intraperitoneal) in B6D2F1 (BDF1) mice
Details: endpoint: mean survival time, higher = longer survival
In short: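 Tumor cells were implanted, animals were treated, and survival was followed. The result divides the treated measurement by the vehicle-control measurement.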

[1] = dose: 100.0 mg/kg/injection, schedule: Q01DX009 (ip), vehicle: Klucel (hydroxypropylcellulose) (HPC)
[2] = dose: 200.0 mg/kg/injection, schedule: Q01DX009 (ip), vehicle: Klucel (hydroxypropylcellulose) (HPC)
[3] = dose: 400.0 mg/kg/injection, schedule: Q01DX009 (ip), vehicle: Klucel (hydroxypropylcellulose) (HPC)
[4] = dose: 100.0 mg/kg/injection, schedule: Q04DX003 (ip), vehicle: Klucel (hydroxypropylcellulose) (HPC)
[5] = dose: 200.0 mg/kg/injection, schedule: Q04DX003 (ip), vehicle: Klucel (hydroxypropylcellulose) (HPC)
[6] = dose: 400.0 mg/kg/injection, schedule: Q04DX003 (ip), vehicle: Klucel (hydroxypropylcellulose) (HPC)
[7] = dose: 100.0 mg/kg/injection, schedule: Q04DX002 (ip), vehicle: Klucel (hydroxypropylcellulose) (HPC)
[8] = dose: 200.0 mg/kg/injection, schedule: Q04DX002 (ip), vehicle: Klucel (hydroxypropylcellulose) (HPC)
[9] = dose: 400.0 mg/kg/injection, schedule: Q04DX002 (ip), vehicle: Klucel (hydroxypropylcellulose) (HPC)
[10] = dose: 100.0 mg/kg/injection, schedule: Q01DX001 (ip), vehicle: Klucel (hydroxypropylcellulose) (HPC)
[11] = dose: 200.0 mg/kg/injection, schedule: Q01DX001 (ip), vehicle: Klucel (hydroxypropylcellulose) (HPC)
[12] = dose: 100.0 mg/kg/injection, schedule: Q01DX009 (ip), vehicle: saline sonified
[13] = dose: 200.0 mg/kg/injection, schedule: Q01DX009 (ip), vehicle: saline sonified
[14] = dose: 100.0 mg/kg/injection, schedule: Q04DX003 (ip), vehicle: saline with Tween-80
[15] = dose: 200.0 mg/kg/injection, schedule: Q04DX003 (ip), vehicle: saline with Tween-80
[16] = dose: 400.0 mg/kg/injection, schedule: Q04DX003 (ip), vehicle: saline with Tween-80
[17] = dose: 50.0 mg/kg/injection, schedule: Q01DX009 (ip), vehicle: saline
[18] = dose: 100.0 mg/kg/injection, schedule: Q04DX003 (ip), vehicle: saline

Measured: T/C

CCOC(=O)c1cc(OCC)c2c(ccc3ccccc32)n1
inactive: dose: 100.0 mg/kg/injection, schedule: Q01DX001 (ip), vehicle: carboxymethylcellulose (CMC) 97 % of control | dose: 100.0 mg/kg/injection, schedule: Q01DX009 (ip), vehicle: carboxymethylcellulose (CMC) 95 % of control and 103 % of control | dose: 100.0 mg/kg/injection, schedule: Q04DX002 (ip), vehicle: carboxymethylcellulose (CMC) 102 % of control and 105 % of control | dose: 100.0 mg/kg/injection, schedule: Q04DX003 (ip), vehicle: carboxymethylcellulose (CMC) 103 % of control | dose: 200.0 mg/kg/injection, schedule: Q01DX001 (ip), vehicle: carboxymethylcellulose (CMC) 112 % of control | dose: 200.0 mg/kg/injection, schedule: Q01DX009 (ip), vehicle: carboxymethylcellulose (CMC) 98 % of control and 106 % of control | dose: 200.0 mg/kg/injection, schedule: Q04DX002 (ip), vehicle: carboxymethylcellulose (CMC) 97 % of control and 102 % of control | dose: 200.0 mg/kg/injection, schedule: Q04DX003 (ip), vehicle: carboxymethylcellulose (CMC) 97 % of control | dose: 400.0 mg/kg/injection, schedule: Q01DX001 (ip), vehicle: carboxymethylcellulose (CMC) 100 % of control | dose: 400.0 mg/kg/injection, schedule: Q01DX009 (ip), vehicle: carboxymethylcellulose (CMC) 98 % of control and 101 % of control | dose: 400.0 mg/kg/injection, schedule: Q04DX002 (ip), vehicle: carboxymethylcellulose (CMC) 96 % of control and 97 % of control | dose: 400.0 mg/kg/injection, schedule: Q04DX003 (ip), vehicle: carboxymethylcellulose (CMC) 102 % of control

CCC(Cl)(Cl)[N+](=O)[O-]
inactive: dose: 100.0 mg/kg/injection, schedule: Q04DX002 (ip), vehicle: saline with Tween-80 98 % of control | dose: 200.0 mg/kg/injection, schedule: Q04DX002 (ip), vehicle: saline with Tween-80 98 % of control | dose: 400.0 mg/kg/injection, schedule: Q04DX002 (ip), vehicle: saline with Tween-80 102 % of control

NNC(=O)c1ccc(NC(=S)Nc2ccccc2)cc1
inactive: [1] 93 % of control | [2] 93 % of control | [3] 104 % of control

Nc1cccc2c1C(=O)c1cccc(N)c1C2=O
inactive: [4] 101 % of control | [5] 96 % of control | [6] 96 % of control

NNS(=O)(=O)c1ccc([N+](=O)[O-])cc1
inactive: dose: 12.5 mg/kg/injection, schedule: Q01DX009 (ip), vehicle: Klucel (hydroxypropylcellulose) (HPC) 109 % of control | dose: 25.0 mg/kg/injection, schedule: Q01DX009 (ip), vehicle: Klucel (hydroxypropylcellulose) (HPC) 106 % of control | dose: 50.0 mg/kg/injection, schedule: Q01DX009 (ip), vehicle: Klucel (hydroxypropylcellulose) (HPC) 101 % of control

[N-]=[N+]=C1Cc2ccccc2C1=O
inactive: [1] 103 % of control | [4] 102 % of control | [2] 100 % of control | [5] 105 % of control | [6] 92 % of control

O=[N+]([O-])c1ccc(C2SCSCS2)cc1
inactive: [4] 98 % of control | [2] 90 % of control | [5] 93 % of control | [3] 95 % of control | [6] 93 % of control

Clc1ccc(C2(CBr)OCCO2)cc1
inactive: [1] 98 % of control and 105 % of control | [7] 95 % of control and 100 % of control | [2] 101 % of control and 91 % of control | [8] 97 % of control and 98 % of control | [3] 97 % of control and 98 % of control | [9] 98 % of control and 108 % of control

COc1ccc(Br)cc1C1OC(=O)c2c(OC)c(OC)cc(O)c21 (stereo unspecified)
inactive: [10] 96 % of control | [11] 98 % of control | dose: 400.0 mg/kg/injection, schedule: Q01DX001 (ip), vehicle: Klucel (hydroxypropylcellulose) (HPC) 94 % of control

OC12CCCC3CCCC(CCC1)C32 (stereo unspecified)
inactive: [12] 108 % of control | [4] 106 % of control | [13] 111 % of control | [5] 96 % of control | dose: 400.0 mg/kg/injection, schedule: Q01DX009 (ip), vehicle: saline sonified 92 % of control | [6] 104 % of control

O=C(O)/C=C/SCc1ccccc1
inactive: [7] 97 % of control | [8] 90 % of control | [9] 97 % of control

COc1cc(Nc2nc(N)ncc2N)cc(OC)c1OC
inactive: [14] 95 % of control | [15] 98 % of control | [16] 92 % of control

Nc1nc(SCCO)nc2nc[nH]c12
inactive: [14] 96 % of control | [15] 95 % of control | [16] 90 % of control

CCN(CC)CCOc1ccccc1C(=O)CCc1ccccc1
inactive: dose: 12.5 mg/kg/injection, schedule: Q01DX009 (ip), vehicle: saline 93 % of control | dose: 25.0 mg/kg/injection, schedule: Q01DX009 (ip), vehicle: saline 93 % of control | dose: 25.0 mg/kg/injection, schedule: Q04DX003 (ip), vehicle: saline 99 % of control | [17] 100 % of control | dose: 50.0 mg/kg/injection, schedule: Q04DX003 (ip), vehicle: saline 97 % of control | [18] 102 % of control

COc1cc(CC2Cc3cccc(=O)c(O)c3C(=O)O2)cc(OC)c1OC (stereo unspecified)
inactive: [14] 90 % of control | [15] 95 % of control | [16] 92 % of control

CC(=O)N(C)C(C(=O)N1CC(C)CC1C(=O)N(C)C1C(=O)NC(CC(C)C)C(=O)N2CC(C)CC2C(=O)NC(CC(C)C)C(=O)N(C)C(C(C)C)C(=O)N2CCCC2C(=O)N(C)C(CC(C)C)C(=O)NCC(=O)OC1C)C(C)C (stereo unspecified)
inactive: dose: 18.75 mg/kg/injection, schedule: Q01DX009 (ip), vehicle: Klucel (hydroxypropylcellulose) (HPC) 104 % of control | dose: 37.5 mg/kg/injection, schedule: Q01DX009 (ip), vehicle: Klucel (hydroxypropylcellulose) (HPC) 109 % of control | dose: 75.0 mg/kg/injection, schedule: Q01DX009 (ip), vehicle: Klucel (hydroxypropylcellulose) (HPC) 101 % of control

COc1cc2c(cc1OC)C(=O)CN(S(=O)(=O)c1ccc(C)cc1)CC2
inactive: dose: 50.0 mg/kg/injection, schedule: Q01DX009 (ip), vehicle: saline sonified 101 % of control | [12] 87 % of control | [4] 96 % of control | [13] 89 % of control | [5] 96 % of control | [6] 97 % of control

CC(=O)OC1CCCCC1N (stereo unspecified)
inactive: dose: 100.0 mg/kg/injection, schedule: Q04DX002 (ip), vehicle: saline 100 % of control and 91 % of control | dose: 200.0 mg/kg/injection, schedule: Q04DX002 (ip), vehicle: saline 92 % of control and 103 % of control | dose: 400.0 mg/kg/injection, schedule: Q04DX002 (ip), vehicle: saline 103 % of control and 114 % of control

COc1cc(OC(C)=O)c(OC(C)=O)cc1OC(C)=O
inactive: dose: 100.0 mg/kg/injection, schedule: Q01DX009 (ip), vehicle: saline with Tween-80 98 % of control | dose: 200.0 mg/kg/injection, schedule: Q01DX009 (ip), vehicle: saline with Tween-80 96 % of control | dose: 400.0 mg/kg/injection, schedule: Q01DX009 (ip), vehicle: saline with Tween-80 100 % of control

O=C(O)CCI
inactive: [17] 98 % of control | dose: 100.0 mg/kg/injection, schedule: Q01DX009 (ip), vehicle: saline 90 % of control | dose: 100.0 mg/kg/injection, schedule: Q04DX003 (ip), vehicle: other 102 % of control | dose: 200.0 mg/kg/injection, schedule: Q01DX009 (ip), vehicle: saline 100 % of control | dose: 200.0 mg/kg/injection, schedule: Q04DX003 (ip), vehicle: other 96 % of control

CN(C)C(CC(=O)c1ccccc1)C(=O)O (stereo unspecified)
inactive: [18] 94 % of control | dose: 200.0 mg/kg/injection, schedule: Q04DX003 (ip), vehicle: saline 96 % of control

O=C(CCCC(=O)N/N=C/c1cccc2ccccc12)N/N=C/c1cccc2ccccc12
inactive: dose: 50.0 mg/kg/injection, schedule: Q01DX001 (ip), vehicle: other 93 % of control | dose: 100.0 mg/kg/injection, schedule: Q01DX001 (ip), vehicle: other 91 % of control | dose: 200.0 mg/kg/injection, schedule: Q01DX001 (ip), vehicle: other 91 % of control | dose: 400.0 mg/kg/injection, schedule: Q01DX001 (ip), vehicle: other 87 % of control

COc1ccc(-n2c(=O)c(N=Nc3ccccc3OC)c(O)n(-c3ccc(C)cc3)c2=S)cc1
inactive: dose: 50.0 mg/kg/injection, schedule: Q01DX001 (ip), vehicle: Klucel (hydroxypropylcellulose) (HPC) 92 % of control | [10] 89 % of control | [11] 91 % of control
